Data reported in PubChem BioAssay (NCI).
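Five concentrations, 48 hours, 96-well plates. GI50 = concentration required for 50% inhibition of growth. TGI marks complete inhibition of growth.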

How the values were obtained:
Experiment in all cases: NCI anticancer screen, dose series, 48 h
[1] = system: 786-0 renal
[2] = system: A498 renal
[3] = system: A549 NSCLC
[4] = system: ACHN renal
[5] = system: BT-549 breast
[6] = system: CAKI-1 renal
[7] = system: CCRF-CEM leukemia
[8] = system: COLO 205 colon
[9] = system: DU-145 prostate
[10] = system: EKVX NSCLC
[11] = system: HCC-2998 colon
[12] = system: HCT-116 colon
[13] = system: HCT-15 colon
[14] = system: HL-60(TB) leukemia
[15] = system: HOP-62 NSCLC
[16] = system: HOP-92 NSCLC
[17] = system: HS 578T breast
[18] = system: HT29 colon
[19] = system: IGROV1 ovarian
[20] = system: K-562 leukemia
[21] = system: KM12 colon
[22] = system: LOX IMVI melanoma
[23] = system: M14 melanoma
[24] = system: MALME-3M melanoma
[25] = system: MCF7 breast
[26] = system: MDA-MB-231 breast
[27] = system: MDA-MB-435
[28] = system: MOLT-4 leukemia
[29] = system: NCI-H226 lung
[30] = system: NCI-H23 lung
[31] = system: NCI-H460 lung
[32] = system: NCI/ADR-RES ovarian
[33] = system: OVCAR-3 ovarian
[34] = system: OVCAR-4 ovarian
[35] = system: OVCAR-5 ovarian
[36] = system: OVCAR-8 ovarian
[37] = system: PC-3 prostate
[38] = system: RPMI-8226 leukemia
[39] = system: RXF 393 renal
[40] = system: SF-268 CNS
[41] = system: SF-295 CNS
[42] = system: SF-539 CNS
[43] = system: SK-MEL-2 melanoma
[44] = system: SK-MEL-28 melanoma
[45] = system: SK-MEL-5 melanoma
[46] = system: SK-OV-3 ovarian
[47] = system: SN12C renal
[48] = system: SNB-19 CNS
[49] = system: SNB-75 CNS
[50] = system: SR leukemia
[51] = system: SW-620 colon
[52] = system: T-47D breast
[53] = system: TK-10 renal
[54] = system: U251 CNS
[55] = system: UACC-257 melanoma
[56] = system: UACC-62 melanoma
[57] = system: UO-31 renal

SMILES: CC(C)(C)c1ccc(C(=O)Nc2sc3c(c2C(N)=O)CCC(O)C3)cc1 (centres undefined)
- GI50 [1]: 1980 nM
- TGI [1]: 6.35 µM
- GI50 [2]: 1460 nM
- TGI [2]: 4.79 µM
- GI50 [3]: 2230 nM
- TGI [3]: 33 µM
- GI50 [4]: 321 nM
- TGI [4]: 13.2 µM
- GI50 [5]: 3.13 µM
- TGI [5]: 14.2 µM
- GI50 [6]: 109 nM
- TGI [6]: 3.61 µM
- GI50 [7]: 2010 nM
- TGI [7]: 10.6 µM
- GI50 [8]: 377 nM
- TGI [8]: 1720 nM
- GI50 [9]: 2700 nM
- TGI [9]: 17.4 µM
- GI50 [10]: 3.52 µM
- TGI [10]: 18.5 µM
- GI50 [11]: 1050 nM
- TGI [11]: 6.78 µM
- GI50 [12]: 1140 nM
- TGI [12]: 11.5 µM
- GI50 [13]: 729 nM
- TGI [13]: 10.4 µM
- GI50 [14]: 1770 nM
- TGI [14]: 15 µM
- GI50 [15]: 1420 nM
- TGI [15]: 8.65 µM
- GI50 [16]: 2740 nM
- TGI [16]: 16.5 µM
- GI50 [17]: 4.18 µM
- TGI [17]: 35.1 µM
- GI50 [18]: 569 nM
- TGI [18]: 3.23 µM
- GI50 [19]: 3.24 µM
- TGI [19]: 18.5 µM
- GI50 [20]: 50.7 nM
- TGI [20]: 1220 nM
- GI50 [21]: 365 nM
- TGI [21]: 3.15 µM
- GI50 [22]: 228 nM
- TGI [22]: 1750 nM
- GI50 [23]: 995 nM
- TGI [23]: 4.71 µM
- GI50 [24]: 4.16 µM
- TGI [24]: 17 µM
- GI50 [25]: 753 nM
- TGI [25]: 10.5 µM
- GI50 [26]: 2170 nM
- TGI [26]: 5.32 µM
- GI50 [27]: 422 nM
- TGI [27]: 15.6 µM
- GI50 [28]: 1650 nM
- TGI [28]: 11.5 µM
- GI50 [29]: 2960 nM
- TGI [29]: 27 µM
- GI50 [30]: 4.16 µM
- TGI [30]: 22.8 µM
- GI50 [31]: 493 nM
- TGI [31]: 10.6 µM
- GI50 [32]: 2330 nM
- TGI [32]: 31.7 µM
- GI50 [33]: 3.11 µM
- TGI [33]: 13.3 µM
- GI50 [34]: 747 nM
- TGI [34]: 17.1 µM
- GI50 [35]: 3.14 µM
- TGI [35]: 17.4 µM
- GI50 [36]: 2640 nM
- TGI [36]: 87.4 µM
- GI50 [37]: 2770 nM
- TGI [37]: 16.4 µM
- GI50 [38]: 2000 nM
- TGI [38]: 5.42 µM
- GI50 [39]: 1770 nM
- TGI [39]: 4.93 µM
- GI50 [40]: 4.39 µM
- TGI [40]: 17.9 µM
- GI50 [41]: 582 nM
- TGI [41]: 2540 nM
- GI50 [42]: 1390 nM
- TGI [42]: 7.19 µM
- GI50 [43]: 4.46 µM
- TGI [43]: 19 µM
- GI50 [44]: 2950 nM
- TGI [44]: 15.1 µM
- GI50 [45]: 908 nM
- TGI [45]: 3.7 µM
- GI50 [46]: 3.44 µM
- TGI [46]: 19.2 µM
- GI50 [47]: 6.33 µM
- TGI [47]: 22.2 µM
- GI50 [48]: 8.94 µM
- TGI [48]: 21.2 µM
- GI50 [49]: 3.18 µM
- TGI [49]: 15.1 µM
- GI50 [50]: 312 nM
- TGI [50]: 4.87 µM
- GI50 [51]: 597 nM
- TGI [51]: 11 µM
- GI50 [52]: 625 nM
- TGI [52]: 14.8 µM
- GI50 [53]: 4.37 µM
- TGI [53]: 18.4 µM
- GI50 [54]: 3.95 µM
- TGI [54]: 19.6 µM
- GI50 [55]: 1270 nM
- TGI [55]: 10.1 µM
- GI50 [56]: 333 nM
- TGI [56]: 19.9 µM
- GI50 [57]: 2030 nM
- TGI [57]: 12.8 µM
